# Results: patent US20170190671A1, “BIS(ARYL)CATECHOL DERIVATIVES AS HERBICIDES” (E I DU PONT DE NEMOURS AND COMPANY, priority 2014, published 2017)
# What was measured:
# Assay type in all cases: in vivo
# [1] = tested on: barnyardgrass (Echinochloa crus-galli); test: Test A postemergence; details: Echinochloa crus-galli, post-emergence, 240 h, 0 to 100 scale, read-out: Plant response rating, Barnyardgrass
# Procedure, shortened: (§1)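 Visual 0–100 rating (100 = complete control) taken about 10 d post-treatment relative to untreated checks. Preemergence: directed soil spray on sown loam/sand pots. Postemergence: seedlings 2–10 cm, 1–2 leaf. Non-phytotoxic solvent formulation with surfactant.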
# [2] = tested on: pigweed (Amaranthus retroflexus); test: Test A postemergence; details: Amaranthus retroflexus, post-emergence, 240 h, 0 to 100 scale, read-out: Plant response rating, Pigweed
# Procedure, shortened: as §1
# [3] = tested on: galium (catchweed bedstraw, Galium aparine); test: Test A postemergence; details: Galium, post-emergence, 240 h, 0 to 100 scale, read-out: Plant response rating, Galium
# Procedure, shortened: as §1
# [4] = tested on: blackgrass (Alopecurus myosuroides); test: Test A postemergence; details: Alopecurus myosuroides, post-emergence, 240 h, 0 to 100 scale, read-out: Plant response rating, Blackgrass
# Procedure, shortened: as §1
# [5] = tested on: ragweed (common ragweed, Ambrosia elatior); test: Test A postemergence; details: Ambrosia artemisiifolia, post-emergence, 240 h, 0 to 100 scale, read-out: Plant response rating, Ragweed
# Procedure, shortened: as §1
# [6] = tested on: wheat (Triticum aestivum); test: Test A postemergence; details: Triticum aestivum, post-emergence, 240 h, 0 to 100 scale, read-out: Plant response rating, Wheat
# Procedure, shortened: as §1
# [7] = tested on: giant foxtail (Setaria faberii); test: Test A postemergence; details: Setaria faberi, post-emergence, 240 h, 0 to 100 scale, read-out: Plant response rating, Foxtail, Giant
# Procedure, shortened: as §1
# [8] = tested on: Italian ryegrass (Lolium multiflorum); test: Test A postemergence; details: Lolium multiflorum, post-emergence, 240 h, 0 to 100 scale, read-out: Plant response rating, Ryegrass, Italian
# Procedure, shortened: as §1
# kochia (Kochia scoparia) [9] = test: Test A postemergence; details: Bassia scoparia, post-emergence, 240 h, 0 to 100 scale, read-out: Plant response rating, Kochia
# Procedure, shortened: as §1
# corn (Zea mays) = test: Test A postemergence; details: Zea mays, post-emergence, 240 h, 0 to 100 scale
# Procedure, shortened: as §1
# [10] = tested on: barnyardgrass (Echinochloa crus-galli); test: Test A preemergence; details: Echinochloa crus-galli, pre-emergence, 240 h, 0 to 100 scale (0 no effect, 100 complete control), read-out: Barnyardgrass plant response rating
# Procedure, shortened: as §1
# [11] = tested on: pigweed (Amaranthus retroflexus); test: Test A preemergence; details: Amaranthus retroflexus, pre-emergence, 240 h, 0 to 100 scale (0 no effect, 100 complete control), read-out: Pigweed plant response rating
# Procedure, shortened: as §1
# [12] = tested on: ragweed (common ragweed, Ambrosia elatior); test: Test A preemergence; details: Ambrosia artemisiifolia, pre-emergence, 240 h, 0 to 100 scale (0 no effect, 100 complete control), read-out: Ragweed plant response rating
# Procedure, shortened: as §1
# [13] = tested on: giant foxtail (Setaria faberii); test: Test A preemergence; details: Setaria faberi, pre-emergence, 240 h, 0 to 100 scale (0 no effect, 100 complete control), read-out: Foxtail, Giant plant response rating
# Procedure, shortened: as §1
# [14] = tested on: Italian ryegrass (Lolium multiflorum); test: Test A preemergence; details: Lolium multiflorum, pre-emergence, 240 h, 0 to 100 scale (0 no effect, 100 complete control), read-out: Ryegrass, Italian plant response rating
# Procedure, shortened: as §1
# kochia (Kochia scoparia) [15] = test: Test A preemergence; details: Bassia scoparia, pre-emergence, 240 h, 0 to 100 scale (0 no effect, 100 complete control), read-out: Kochia plant response rating
# Procedure, shortened: as §1
# [16] = tested on: galium (catchweed bedstraw, Galium aparine); test: Test C postemergence; details: Galium, post-emergence, 336 h, Postemergence, scale 0 to 100, read-out: Plant response rating, Galium
# Procedure, shortened: (§2)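 Seeds sown in a loam soil and sand blend were treated preemergence; plants in peat-moss/vermiculite medium were sprayed at the 1- to 4-leaf stage (2-18 cm). Chemicals were in a non-phytotoxic surfactant-containing solvent. After 13 to 15 days in a greenhouse, injury was visually rated against controls on a 0-100 scale.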
# [17] = tested on: giant foxtail (Setaria faberii); test: Test C postemergence; details: Setaria faberi, post-emergence, 336 h, Postemergence, scale 0 to 100, read-out: Plant response rating, Foxtail, Giant
# Procedure, shortened: as §2
# [18] = tested on: morningglory (Ipomoea coccinea); test: Test C postemergence; details: Ipomoea, post-emergence, 336 h, Postemergence, scale 0 to 100, read-out: Plant response rating, Morningglory
# Procedure, shortened: as §2
# [19] = tested on: barnyardgrass (Echinochloa crus-galli); test: Test B flooded paddy; details: Echinochloa crus-galli, 336 h; 250 g ai/ha, Flood, 13 to 15 days, scale 0 (no effect) to 100 (complete control); read-out: Plant response rating, Barnyardgrass
# Procedure, shortened: (§3)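 In-water treatment: compound dosed into 3 cm flood over soil, water level unchanged throughout. Controls run alongside; visual assessment at day 13–15.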
# rice (Oryza sativa) = test: Test B flooded paddy; details: Oryza sativa, 336 h; 250 g ai/ha, Flood, 13 to 15 days, scale 0 (no effect) to 100 (complete control); read-out: Plant response rating, Rice
# Procedure, shortened: as §3
# [20] = tested on: sedge, umbrella (small-flower umbrella sedge, Cyperus difformis); test: Test B flooded paddy; details: Cyperus difformis, 336 h; 250 g ai/ha, Flood, 13 to 15 days, scale 0 (no effect) to 100 (complete control); read-out: Plant response rating, Sedge, Umbrella
# Procedure, shortened: as §3
# [21] = tested on: ducksalad (Heteranthera limosa); test: Test B flooded paddy; details: Heteranthera limosa, 336 h; 250 g ai/ha, Flood, 13 to 15 days, scale 0 (no effect) to 100 (complete control); read-out: Plant response rating, Ducksalad
# Procedure, shortened: as §3
smiles,measurement,setting,value
N#Cc1cccc(Oc2ncc(Cl)cn2)c1Oc1ccc(Cl)cc1 [Compound 36],pest or weed control at 31 g/ha,[1]; 31 g ai/ha,10%
same,pest or weed control at 125 g/ha,[1]; 125 g ai/ha,30%
same,pest or weed control at 31 g/ha,[2]; 31 g ai/ha,90%
same,pest or weed control at 125 g/ha,[2]; 125 g ai/ha,100%
same,pest or weed control at 31 g/ha,[3]; 31 g ai/ha,90%
same,pest or weed control at 125 g/ha,[3]; 125 g ai/ha,100%
same,pest or weed control at 31 g/ha,[4]; 31 g ai/ha,20%
same,pest or weed control at 125 g/ha,[4]; 125 g ai/ha,40%
same,pest or weed control at 31 g/ha,[5]; 31 g ai/ha,10%
same,pest or weed control at 125 g/ha,[5]; 125 g ai/ha,20%
same,plant injury at 31 g/ha,[6]; 31 g ai/ha,0%
same,plant injury at 125 g/ha,[6]; 125 g ai/ha,10%
same,pest or weed control at 31 g/ha,[7]; 31 g ai/ha,20%
same,pest or weed control at 125 g/ha,[7]; 125 g ai/ha,50%
same,pest or weed control at 31 g/ha,[8]; 31 g ai/ha,0%
same,pest or weed control at 125 g/ha,[8]; 125 g ai/ha,10%
same,pest or weed control at 31 g/ha,kochia (Kochia scoparia) [9]; 31 g ai/ha,80%
same,pest or weed control at 125 g/ha,kochia (Kochia scoparia) [9]; 125 g ai/ha,100%
same,"Corn plant response rating (crop injury, 0 = no effect, 100 = complete kill) at 31 g/ha",corn (Zea mays); 31 g ai/ha,20%
same,"Corn plant response rating (crop injury, 0 = no effect, 100 = complete kill) at 125 g/ha",corn (Zea mays); 125 g ai/ha,20%
same,pest or weed control at 31 g/ha,[10]; 31 g ai/ha,0%
same,pest or weed control at 125 g/ha,[10]; 125 g ai/ha,40%
same,pest or weed control at 31 g/ha,[11]; 31 g ai/ha,60%
same,pest or weed control at 125 g/ha,[11]; 125 g ai/ha,100%
same,pest or weed control at 31 g/ha,[12]; 31 g ai/ha,0%
same,pest or weed control at 125 g/ha,[12]; 125 g ai/ha,0%
same,pest or weed control at 31 g/ha,[13]; 31 g ai/ha,70%
same,pest or weed control at 125 g/ha,[13]; 125 g ai/ha,90%
same,pest or weed control at 31 g/ha,[14]; 31 g ai/ha,0%
same,pest or weed control at 125 g/ha,[14]; 125 g ai/ha,20%
same,pest or weed control at 31 g/ha,kochia (Kochia scoparia) [15]; 31 g ai/ha,10%
same,pest or weed control at 125 g/ha,kochia (Kochia scoparia) [15]; 125 g ai/ha,50%
same,pest or weed control at 16 g/ha,[16]; 16 g ai/ha,80%
same,pest or weed control at 31 g/ha,[16]; 31 g ai/ha,80%
same,pest or weed control at 62 g/ha,[16]; 62 g ai/ha,95%
same,pest or weed control at 125 g/ha,[16]; 125 g ai/ha,95%
same,pest or weed control at 16 g/ha,[17]; 16 g ai/ha,5%
same,pest or weed control at 31 g/ha,[17]; 31 g ai/ha,5%
same,pest or weed control at 62 g/ha,[17]; 62 g ai/ha,10%
same,pest or weed control at 125 g/ha,[17]; 125 g ai/ha,10%
same,pest or weed control at 31 g/ha,[18]; 31 g ai/ha,60%
same,pest or weed control at 62 g/ha,[18]; 62 g ai/ha,65%
same,pest or weed control at 125 g/ha,[18]; 125 g ai/ha,70%
same,pest or weed control at 250 g/ha,[19],0%
same,plant injury at 250 g/ha,rice (Oryza sativa),0%
same,pest or weed control at 250 g/ha,[20],95%
same,pest or weed control at 250 g/ha,[21],65%
